Patent publication US12258360B2, “Compositions and methods for treatment of anticancer-drug resistant cancers” (THE GEORGE WASHINGTON UNIVERSITY, priority 2020, dated 2025)

What was measured:
[1] = test system: IGROV1 cells; experiment: flow cytometry (FACS) of propidium-iodide stained IGROV1 cells; type: cell-based, human; details: 1 μM
[2] = test system: recruitment of CtIP to DSB sites in IGROV1 cells; experiment: immunofluorescence assay of CtIP co-localization with γH2AX after micro-irradiation; type: cell-based, human; details: 1 μM, 30 minutes post irradiation
Protocol: H2AX (H2A histone family member X) becomes phosphorylated on serine 139 (wherein the phosphorylated form is then called […]) as a reaction on DNA double-strand breaks (DSB). And-1 regulates DSB end resection by establishing a condition or acting as a platform for recruitment of the tumor suppressor protein CtIP—a CtBP (carboxy-terminal binding protein)-interacting protein, to the DSB sites. […] In brief, IGROV1 cells were cultured on coverslips coated with 0.01% of poly-L-lysine. After treatment, the cells were then washed once with PBS, then pre-extracted with 0.5% Triton X-100 extraction buffer (10 mM PIPES pH 7.0, 100 mM NaCl, 3 mM MgCl2 and 300 mM sucrose) on ice for 5 minutes. After washing with PBS, cells were fixed with 4% paraformaldehyde in PBS for 15 minutes. Cells were then washed and incubated for 10 minutes in blocking buffer (PBS containing 3% BSA and 0.02% Tween-20) and subsequently incubated for 1 hour with a primary antibody at room temperature. Cells were washed three times with PBS-T (PBS containing 0.02% Tween-20) and then incubated with a secondary antibody (e.g., rabbit Alexa Fluor-594 and mouse Alexa Fluor-488). After washing with PBS-T, cells were mounted with Fluoromount G containing DAPI (4′,6-diamidino-2-phenylindole—a fluorescent stain that binds strongly to adenine-thymine-rich regions in DNA). Slides were then imaged using a Nikon Eclipse 80i microscope. […]

[3] = test system: IGROV1 CR xenograft; type: in vivo, mice
Protocol: To evaluate the potency of And-1 inhibitors in vivo, IGROV1 or MCF7 cells were subcutaneously implanted into nude mice to form ovarian or breast tumors, respectively. In brief, 5-6 week-old female BALB/c athymic nude mice (CByJ.Cg-Foxn1nu/J, weighting 20-25 grams) were inoculated subcutaneously by injecting the OC cells, cisplatin resistant OC cells or breast cancer cells suspended in 100 μl ice-cold Matrigel/PBS (1:1, V:V; 5×10^6/mouse) into the dorsal flank of each mouse. When the average tumor volume reached 100-150 mm^3, the mice were randomized into subsequent experiment groups. For tumors treated with CH3 only, CH3 was given at 0 mg/kg, 20 mg/kg and 40 mg/kg via intraperitoneal injection twice a week for three weeks. […] The relative tumor volumes were calculated using the formula: a×(b^2)/2, for which a and b represented the longest and shortest diameters, respectively. During the drug treatment, the tumor volume and body weight were measured. Tumor samples were collected 4 days after final administration of the drug.
To assess the efficacy of combination therapy with And-1 inhibitor and cisplatin in vivo, an IGROV1 CR xenograft was treated with vehicle, And-1 inhibitors, cisplatin or combination of cisplatin and And-1 inhibitor via intraperitoneal injection.

[4] = target: T1, And-1 (Homo sapiens, UniProt O75717); experiment: immunoprecipitation of And-1 and anti-ubiquitin immunoblot in IGROV1 cells; type: cell-based; design: endogenous in cells; host or cells: IGROV1 CR
T1 sequence (O75717 1-1129): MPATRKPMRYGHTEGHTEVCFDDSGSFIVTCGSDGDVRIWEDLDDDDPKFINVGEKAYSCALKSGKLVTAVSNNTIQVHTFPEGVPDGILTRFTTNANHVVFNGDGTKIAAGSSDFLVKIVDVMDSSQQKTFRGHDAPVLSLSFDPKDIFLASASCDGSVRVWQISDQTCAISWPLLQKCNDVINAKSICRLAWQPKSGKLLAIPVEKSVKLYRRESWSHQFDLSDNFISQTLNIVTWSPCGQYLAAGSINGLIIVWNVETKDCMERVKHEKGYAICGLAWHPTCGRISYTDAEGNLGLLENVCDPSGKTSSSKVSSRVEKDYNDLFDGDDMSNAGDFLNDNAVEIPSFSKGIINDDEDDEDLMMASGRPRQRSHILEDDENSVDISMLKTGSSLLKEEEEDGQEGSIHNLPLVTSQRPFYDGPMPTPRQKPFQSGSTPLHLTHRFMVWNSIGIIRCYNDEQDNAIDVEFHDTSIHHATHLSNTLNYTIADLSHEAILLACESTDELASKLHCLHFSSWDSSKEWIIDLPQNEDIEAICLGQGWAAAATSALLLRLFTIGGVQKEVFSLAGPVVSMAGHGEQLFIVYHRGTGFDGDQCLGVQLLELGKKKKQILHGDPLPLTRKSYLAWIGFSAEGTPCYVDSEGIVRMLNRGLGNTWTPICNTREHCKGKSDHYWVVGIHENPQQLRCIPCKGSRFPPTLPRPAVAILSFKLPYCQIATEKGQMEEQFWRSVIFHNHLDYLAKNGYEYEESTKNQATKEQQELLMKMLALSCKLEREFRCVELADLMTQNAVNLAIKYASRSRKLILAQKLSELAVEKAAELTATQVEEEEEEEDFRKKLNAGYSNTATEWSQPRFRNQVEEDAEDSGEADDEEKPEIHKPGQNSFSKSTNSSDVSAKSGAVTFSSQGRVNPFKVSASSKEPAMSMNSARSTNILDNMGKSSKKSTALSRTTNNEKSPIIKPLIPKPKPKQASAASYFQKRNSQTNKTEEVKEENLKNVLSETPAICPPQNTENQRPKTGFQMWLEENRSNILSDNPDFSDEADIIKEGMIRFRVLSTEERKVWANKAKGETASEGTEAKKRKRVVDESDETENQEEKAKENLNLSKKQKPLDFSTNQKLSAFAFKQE
Protocol: IGROV1 cells were treated with CH3 in the absence and presence of the 26S proteasome inhibitor MG132 (Benzyl N-[(2S)-4-methyl-1-[[(2S)-4-methyl-1-[[(2S)-4-methyl-1-oxopentan-2-yl]amino]-1-oxopentan-2-yl]amino]-1-oxopentan-2-yl]carbamate). […] Protein degradation through the proteasome requires conjugation of one or more ubiquitin molecules to the target. To address whether And-1 was modified by ubiquitin in IGROV1 cells treated with CH3, And-1 protein was immunoprecipitated and probed with anti-ubiquitin antibody.

OB1OCc2cc(/C=C/c3ccc(Cl)c(Cl)c3)ccc21 [CH3]
percentage of cells in the S-phase [1]: reduced the percentage of cells in the S-phase
recruitment of CtIP to DSB sites induced by micro-irradiation [2]: significantly decreased
And-1 expression in tumor samples (IHC) ([3]; IGROV1 CR xenograft): suppressed expression of And-1
tumor growth, combination with cisplatin vs cisplatin alone ([3]; IGROV1 CR xenograft, cisplatin 8 mg/kg, CH3 20 mg/kg, BZA 2 mg/kg intraperitoneally, three weeks): excellent synergy in reducing tumor growth
systemic toxicity of combination with cisplatin (body weight, H&E staining) ([3]; mouse, in vivo): no obvious systemic toxicity or side effect
ubiquitinated And-1 bands [4]: increased
